Values after ≈ are worked out from the molar mass of the structure shown. Like-named read-outs stand apart in the source and are kept apart here.
Legend:
BMDCs = test: BMDC activation and maturation in vitro (surface markers, IL12p70 ELISA); type: cell-based, C57BL/6 mice; settings: aVD 10^−8 M; LPS and IFN-γ stimulation
Method: Assessment of BMDC activation and maturation in vitro—BMDCs were cultured at a density of 1×10^6/ml and were incubated at 37° C. with 5% CO2 for 10 days. Free aVD, aVD-loaded PS (PS-aVD) or aVD-loaded P-D2-PEG5-PS (P-D2-PEG5-PS-aVD) with the aVD concentration of 10^−8 M were added when the media was refreshed on days 3 and 6. On day 7, 10 ng/ml murine recombinant interferon (IFN-γ) and 1 μg/ml LPS were added to stimulate dendritic cell maturation. At day 10, BMDCs were collected, washed with PBS and then incubated with anti-mouse CD16/CD32 to block FcRs and Zombie Aqua fixable viability dye to determine live/dead cells for 20 min. Cells were washed with PBS and stained with antibody cocktail (CD11c, […] CD80, and CD86) (Table 1) for 35 min at 4° C. BMDC maturation was determined by characterizing the cell surface marker expression using FACSDiva on a LSRII flow cytometer (BD Biosciences). Over 20,000 events were recorded for each sample and data were analyzed with FlowJo software. Different concentrations of P-D2-PEG5-PS-aVD (aVD concentration=0, 10^−9, and 10^−8 M) were also investigated on BMDC maturation using the same procedure described above. […] IL12p70 secretion in supernatant of the cell culture in the last 48 h were determined by enzyme-linked immunosorbent assay (ELISA) following the manufacturer's instructions (Fisher Thermo Scientific).

atherosclerotic lesions = test: Atherosclerotic lesion quantification and immunohistochemistry after 8 weeks treatment; type: in vivo, ApoE−/− mice; settings: total aVD dose 800 ng over 8 weeks
Method: Treatment—Male ApoE^−/− mice at 8-weeks of age were fed a high-fat diet (HFD, Harlan Teklad TD.88137, 42% kcal from fat) for 4 weeks. Treatments were performed from week 12 and 100 μl of different treatments: 1, PBS (control); 2, free aVD (1 μg/ml); 3, PS-aVD; 4, P-D2-PEG5-PS-aVD; 5, P210/P-D2-PEG5-PS-aVD (2, 3, 4, 5 groups with the same aVD concentration of 1 μg/ml) were subsequently i.v. administrated every week for 8 weeks. During those weeks, mice were maintained on a high-fat diet, and the activities and body weight was monitored. In vivo experiments were performed with group sizes of N=5-6 mice per group and then independently repeated for a total of N=10-12 mice per group.
Atherosclerotic lesion quantification and immunohistochemistry—For atherosclerotic lesion analysis, mice were anesthetized and aortas were carefully harvested after perfusion with PBS under a microscope. The heart with ascending aorta was fixed with 4% paraformaldehyde (PFA)/5% sucrose in PBS solution 12 h at 4° C. […] For quantitative analysis of atherosclerotic lesions, 5-7 separate cross-sections from each mouse were stained with Oil Red 0 (ORO) (Sigma) for 1 h at 37° C. and 4′,6-diamidino-2-phenylindole (DAPI) for 5 min. […] An in-house software written in Python was developed for automated and quantitative image analysis (FIG. 16) […]

atherosclerotic plaque = settings: orally to mice, total dose 4800 ng over 12 weeks; cited from earlier work
[1] = Celastrol quantification by HPLC: solubility, encapsulation efficiency, loading capacity, release; type: physicochemical
Method: Celastrol quantification—Celastrol solubility, encapsulation efficiency, and loading capacity were all assessed using high performance liquid chromatography (HPLC) using a Thermo Scientific C18 reverse phase column, with dimethylformamide (DMF) as the mobile phase at 0.5 mL/min. Area under the curve quantification of celastrol absorbance at 280 nm was performed using Thermo Fisher Chromeleon 7 software. A celastrol standard curve was constructed, with good linearity between celastrol concentrations of 2 mg/mL to 12.5 μg/mL, with 6.25 μg/mL being too close to the limit of detection for inclusion in the standard curve.
To determine the loading capacity of celastrol in micelles, defined here as the highest achievable mass of celastrol that can be stably loaded into 1 mg of micelles in 100 μL of 1×PBS, 1 mg of celastrol was added to 1 mg of PEG45-b-PPS20-Benzyl polymer in 500 uL THF in an HPLC vial. THF was removed by vacuum desiccation and micelles were formed via thin film rehydration with 100 μL of 1×PBS. […] Both samples (column filtered and unfiltered) were then lyophilized and redissolved in 200 μL DMF and celastrol content was quantified via HPLC.
To determine the encapsulation efficiency of celastrol in micelles, defined as the percentage of the originally added celastrol mass that is stably encapsulated in micelles after filtration to remove unencapsulated celastrol, micelles were formed as described above with variable amounts of celastrol, and were filtered using an LH-20 column. Filtered micelles were lyophilized and redissolved in 200 μL DMF and celastrol content was quantified via HPLC.
To determine the solubility of celastrol in aqueous buffer, 1 mg of celastrol was added to a glass vial along with 10 mL of 1×PBS. […] The lyophilized powder was resuspended in 200 μL DMF and celastrol was quantified via HPLC.
Celastrol release from micelles into 1×PBS with or without oxidative trigger was determined as follows. […] Absorbance at 424 nm, an absorbance peak for celastrol, were taken using a SpectraMax M3 plate reader using a 96-well plate.

NF-κB = NF-κB inhibition assay in RAW Blue cells (SEAP reporter); type: cell-based; settings: read-out: half maximal effective concentration (EC50), NF-κB inhibition
Method: Inhibition assays—NF-κB inhibition by celastrol was assayed using RAW Blue cells (Invivogen), a stably transfected cell line derived from RAW 264.7 macrophage-like cells, which contain the gene for secreted alkaline phosphatase (SEAP) downstream of the NF-κB promoter. Cells were seeded into a 96 well plate at 50,000 cells per well. NF-κB signalling was induced using 100 ng/mL LPS, with celastrol-loaded micelles and free celastrol (0.1% THF in 1×PBS vehicle) added to the cells concurrent with LPS administration. All micelle formulations contained the same amount of polymer (15 mg/mL) but were loaded with variable amounts of celastrol, and free celastrol formulations were prepared to match the concentration of loaded celastrol within Cel-MC formulations. Free celastrol formulation were made by diluting celastrol stock solutions in THF with 1×PBS to reach the appropriate celastrol concentration and 0.1% THF in 1×PBS. Cells were incubated for 16 hours, as per assay instructions, before supernatant was collected for quantification of SEAP activity, as described by the manufacturer. Colorimetric quantification of SEAP activity was performed on an M3 plate reader (SpectraMax) at an absorbance wavelength of 630 nm.

RAW 264.7 cells [2] = test: Cytotoxicity assay (calcein-AM / ethidium homodimer); type: cell-based
Method: Cytotoxicity assays—RAW 264.7 cells were plated into a 96 well black wall plates at 50,000 cells per well. Cells were then treated with Cel-MC or free celastrol, formulated as described above for the inhibition assays. After 16 h of incubation with free celastrol or Cel-MC formulations, cells were washed and incubated with 4 μM calcein-AM and 2 μM ethidium homodimer (Thermo Fisher), as described by the manufacturer. Readings were performed on an M3 plate reader, at excitation/emission wavelengths of 488/530 nm and 488/635 nm for calcein and ethidium homodimer, respectively. Readings were normalized as described by the manufacturer, accounting for background fluorescence and setting 100% viability for untreated cells and 0% viability for cells incubated with 100% methanol for 15 minutes.

RAW 264.7 cells [3] = test: Apoptosis of RAW 264.7 cells with or without LPS; type: cell-based; settings: 1 μg/mL celastrol, 4 h
Method: Celastrol has been investigated as a potential anti-cancer therapeutic due to its ability to induce cell death, and potentially binds to a number of proteins involved in apoptosis. As the manner of cell death can influence the downstream immune response, the onset of apoptosis upon treatment with celastrol was evaluated. Since NF-κB signalling in RAW 264.7 cells results in the secretion of TNF-α (FIG. 27C), an inducer of apoptosis in some contexts as well as cell survival and proliferation in others, the effect of the presence or absence of LPS during celastrol treatment on the induction of apoptosis or necrosis was assessed.

[4] = in vivo; cited from earlier work

| Compound | expression of MHC-II, CD80 and CD86 by stimulated BMDCs (BMDCs) | improvements in plaque area and macrophage content at the same dosage (atherosclerotic lesions) | decrease in plaque area (atherosclerotic plaque) | reduction in macrophage accumulation (atherosclerotic plaque) | theoretical solubility in nanocarriers, times higher than unencapsulated celastrol [1] | theoretical celastrol ‘solubility’ in 1×PBS when loaded in PEG-b-PPS nanocarriers ([1]; 200 mg/mL of polymer, loading capacity 22%) | solubility at 1 h ([1]; aqueous buffer, thermodynamic from solid, detected in 1 mL of 1×PBS at 37 C, read-out: celastrol dissolved in aqueous buffer (solubility)) | EC50 (NF-κB; 100 ng/mL LPS, 16 hours) | EC50 (NF-κB; LPS) | cell viability as the dosage of celastrol is decreased (RAW 264.7 cells [2]) | cytotoxicity to RAW 264.7 cells (RAW 264.7 cells [2]; 0.8 mg/mL celastrol) | apoptotic cells (RAW 264.7 cells [3]; in the absence of LPS) | apoptotic cells (RAW 264.7 cells [3]; in the presence of LPS) | serum half-life (T1/2β) [4] |
| --- | --- | --- | --- | --- | --- | --- | --- | --- | --- | --- | --- | --- | --- | --- |
| C=C1/C(=C\C=C2/CCC[C@]3(C)[C@@H]([C@H](C)CCCC(C)(C)O)CC[C@@H]23)C[C@@H](O)C[C@@H]1O [aVD, 1, 25-Dihydroxyvitamin D3] | significantly decreased expression | no | 39% | 29% |  |  |  |  |  |  |  |  |  |  |
| CC1=C(O)C(=O)C=C2C1=CC=C1[C@@]2(C)CC[C@@]2(C)[C@@H]3C[C@](C)(C(=O)O)CC[C@]3(C)CC[C@]12C [celastrol] |  |  |  |  | over 10,000 times | 44000 µg/mL | 3.5 µg/mL (≈ 7.77 µM) | 0.2 µg/mL (≈ 0.444 µM) | 0.2 µg/mL (≈ 0.444 µM) | not | highly cytotoxic | 16.5±1.8% | 37.5±4.4% | 8 to 10 h |

Reference: US20230263729A1, “POLY(ETHYLENE GLYCOL)-BLOCK-POLY(PROPYLENE SULFIDE) NANOCARRIER PLATFORM FOR ENHANCED EFFICACY OF IMMUNOSUPPRESSIVE AGENTS” (Northwestern University, priority 2019, published 2023)
